Results taken from patent US20050197350A1, “Novel quinoline, tetrahydroquinazoline, and pyrimidine derivatives and methods of treatment related to the use thereof” (TAISHO PHARMACEUTICAL CO., LTD., priority 2003, published 2005).

Test system: MCH receptors
Assay: MCH receptor activity class (method not given)
Conditions: MCH receptor activity class 1-3 (percent of control at 10^-7 M or IC50)

Compound | class
Cc1cc(C)c(NC(=S)N[C@H]2CC[C@@H](Nc3nccc(N(C)C)n3)CC2)cc1C [compound 2334] | 3 (Class 3 The value of percent of control at 10^−7 M was more than 60% or the value of IC50 was more than 200 nM.)
Cc1cc(C)c(NC(=S)N[C@H]2CC[C@@H](Nc3cc(N(C)C)c4ccccc4n3)CC2)cc1C [compound 2289] | 3 (Class 3 The value of percent of control at 10^−7 M was more than 60% or the value of IC50 was more than 200 nM.)
CN(C)c1cc(N[C@H]2CC[C@@H](CNC(=O)Nc3c(F)cc(Br)cc3F)CC2)nc2ccccc12 [compound 2386] | 3 (Class 3 The value of percent of control at 10^−7 M was more than 60% or the value of IC50 was more than 200 nM.)

Same assay, conditions: MCH receptor; class by percent of control at 10^-7 M or IC50

Compound | class
N-cyclopropyl-N′-(cis-4-{[4-(dimethylamino)-5,6,7,8-tetrahydroquinazolin-2-yl]amino}cyclohexyl)thiourea [compound 2028] | 3 (Class 3 The value of percent of control at 10^−7 M was more than 60% or the value of IC50 was more than 200 nM.)
CN(C)c1cc(N[C@H]2CC[C@@H](NC(=O)c3cccc(I)c3)CC2)nc2ccccc12 [compound 58, N-(cis-4-{[4-(dimethylamino)quinolin-2-yl]amino}cyclohexyl)-3-iodobenzamide] | 2 (Class 2: The value of percent of control at 10^−7 M was from 40% to 60% or the value of IC′50 was from 50 nM to 200 nM.)
CN(C)c1cc(N[C@H]2CC[C@@H](NC(=O)c3ccccc3OC(F)(F)F)CC2)nc2ccccc12 [compound 118] | 3 (Class 3 The value of percent of control at 10^−7 M was more than 60% or the value of IC50 was more than 200 nM.)
CN(C)c1cc(N[C@H]2CC[C@@H](NC(=O)c3ccc(F)c(Cl)c3F)CC2)nc2ccccc12 [compound 62, 3-chloro-N-(cis-4-{[4-(dimethylamino)quinolin-2-yl]amino}cyclohexyl)-2,4-difluorobenzamide] | 2 (Class 2: The value of percent of control at 10^−7 M was from 40% to 60% or the value of IC′50 was from 50 nM to 200 nM.)
CCSc1ncccc1C(=O)N[C@H]1CC[C@@H](Nc2cc(N(C)C)c3ccccc3n2)CC1 [compound 36] | 3 (Class 3 The value of percent of control at 10^−7 M was more than 60% or the value of IC50 was more than 200 nM.)
CN(C)c1cc(N[C@H]2CC[C@@H](NC(=O)C3(c4ccc(Cl)cc4)CCCC3)CC2)nc2ccccc12 [compound 99] | 2 (Class 2: The value of percent of control at 10^−7 M was from 40% to 60% or the value of IC′50 was from 50 nM to 200 nM.)
CN(C)c1nc(N[C@H]2CC[C@@H](NC(=S)Nc3ccc4nsnc4c3)CC2)nc2c1CCCC2 [compound 2084] | 3 (Class 3 The value of percent of control at 10^−7 M was more than 60% or the value of IC50 was more than 200 nM.)
CN(C)c1nc(N[C@H]2CC[C@@H](NC(=O)Nc3ccc(-c4ccccc4)s3)CC2)nc2c1CCCC2 [compound 1919] | 3 (Class 3 The value of percent of control at 10^−7 M was more than 60% or the value of IC50 was more than 200 nM.)
CN(C)c1cc(N[C@H]2CC[C@@H](CNC(=O)Cc3ccccc3)CC2)nc2ccccc12 [compound 172] | 3 (Class 3 The value of percent of control at 10^−7 M was more than 60% or the value of IC50 was more than 200 nM.)

Same assay, conditions: activity class 1-3: percent of control at 10^-7 M or IC50

Compound | class
COc1ccccc1OC(=O)NC[C@H]1CC[C@@H](Nc2cc(N(C)C)c3ccccc3n2)CC1 [compound 1564] | 3 (Class 3 The value of percent of control at 10^−7 M was more than 60% or the value of IC50 was more than 200 nM.)
CN(C)c1nc(NC2CCC(CNC(=O)OCc3ccc([N+](=O)[O-])cc3)CC2)nc2c1CCCC2 (centres unmarked) [compound 1608] | 3 (Class 3 The value of percent of control at 10^−7 M was more than 60% or the value of IC50 was more than 200 nM.)

Same assay, conditions: class 1-3 by percent of control at 10^-7 M or IC50

Compound | class
CN(C)c1ccnc(N[C@H]2CC[C@@H](CNC(=O)c3csc4ccccc34)CC2)n1 [compound 436] | 3 (Class 3 The value of percent of control at 10^−7 M was more than 60% or the value of IC50 was more than 200 nM.)
COc1ccc(C(=O)N[C@H]2CC[C@@H](Nc3nc4c(c(N(C)C)n3)CCCC4)CC2)cc1OC [compound 540] | 3 (Class 3 The value of percent of control at 10^−7 M was more than 60% or the value of IC50 was more than 200 nM.)

Same assay, conditions: class by percent of control at 10^-7 M or IC50

Compound | class
CN(C)c1ccnc(N[C@H]2CC[C@@H](NC(=O)c3ccc([N+](=O)[O-])s3)CC2)n1 [compound 827, N-(cis-4-{[4-(dimethylamino)pyrimidin-2-yl]amino}cyclohexyl)-5-nitrothiophene-2-carboxamide] | 2 (Class 2: The value of percent of control at 10^−7 M was from 40% to 60% or the value of IC′50 was from 50 nM to 200 nM.)
CSc1ncccc1C(=O)NC[C@H]1CC[C@@H](Nc2nc3c(c(N(C)C)n2)CCCC3)CC1 [compound 604] | 3 (Class 3 The value of percent of control at 10^−7 M was more than 60% or the value of IC50 was more than 200 nM.)
COc1cc2ccccc2cc1CN[C@H]1CC[C@@H](Nc2cc(N(C)C)c3ccccc3n2)CC1 [compound 1454] | 3 (Class 3 The value of percent of control at 10^−7 M was more than 60% or the value of IC50 was more than 200 nM.)
CCC(Oc1ccccc1)C(=O)NC[C@H]1CC[C@@H](Nc2nc3c(c(N(C)C)n2)CCCC3)CC1 (relative stereo) [compound 610] | 3 (Class 3 The value of percent of control at 10^−7 M was more than 60% or the value of IC50 was more than 200 nM.)
CN(C)c1cc(N[C@H]2CC[C@@H](NC(=O)c3ccc4ncsc4c3)CC2)nc2ccccc12 [compound 779] | 3 (Class 3 The value of percent of control at 10^−7 M was more than 60% or the value of IC50 was more than 200 nM.)
COc1cc(CN[C@H]2CC[C@@H](Nc3nccc(N(C)C)n3)CC2)cc(OC)c1 [compound 1221] | 3 (Class 3 The value of percent of control at 10^−7 M was more than 60% or the value of IC50 was more than 200 nM.)
CN(C)c1ccnc(N[C@H]2CC[C@@H](NC(=O)Cc3ccc(F)cc3Cl)CC2)n1 [compound 814] | 3 (Class 3 The value of percent of control at 10^−7 M was more than 60% or the value of IC50 was more than 200 nM.)
CCOc1cc(CN[C@H]2CC[C@@H](Nc3nccc(N(C)C)n3)CC2)ccc1OC [compound 1217] | 3 (Class 3 The value of percent of control at 10^−7 M was more than 60% or the value of IC50 was more than 200 nM.)
COc1ccc(NC(=S)N[C@H]2CC[C@@H](Nc3nc4c(c(N(C)C)n3)CCCC4)CC2)c(OC)c1 [compound 1740, N-(2,4-dimethoxyphenyl)-N′-(cis-4-{[4-(dimethylamino)-5,6,7,8-tetrahydroquinazolin-2-yl]amino}cyclohexyl)thiourea] | 1 (Class 1: The value of percent of control at 10^−7 M was less than 40% or the value of IC50 was less than 50 nM.)
COc1cc(C(=O)N[C@H]2CC[C@@H](Nc3cc(N(C)C)c4ccccc4n3)CC2)ccc1[N+](=O)[O-] [compound 690, N-(cis-4-{[4-(dimethylamino)quinolin-2-yl]amino}cyclohexyl)-3-methoxy-4-nitrobenzamide] | 1 (Class 1: The value of percent of control at 10^−7 M was less than 40% or the value of IC50 was less than 50 nM.)
CN(C)c1nc(N[C@H]2CC[C@@H](CNC(=O)Nc3cc(F)cc(F)c3)CC2)nc2c1CCCC2 [compound 2495] | 3 (Class 3 The value of percent of control at 10^−7 M was more than 60% or the value of IC50 was more than 200 nM.)
CN(C)c1ccnc(N[C@H]2CC[C@@H](NC(=O)c3ccc(F)cc3F)CC2)n1 [compound 344] | 3 (Class 3 The value of percent of control at 10^−7 M was more than 60% or the value of IC50 was more than 200 nM.)
CN(C)c1ccnc(N[C@H]2CC[C@@H](NC(=O)c3cccs3)CC2)n1 [compound 270] | 3 (Class 3 The value of percent of control at 10^−7 M was more than 60% or the value of IC50 was more than 200 nM.)
CN(C)c1ccnc(N[C@H]2CC[C@@H](CNCc3cccc(Br)c3)CC2)n1 [compound 1264] | 3 (Class 3 The value of percent of control at 10^−7 M was more than 60% or the value of IC50 was more than 200 nM.)
Cc1onc(-c2c(F)cccc2Cl)c1C(=O)N[C@H]1CC[C@@H](Nc2nccc(N(C)C)n2)CC1 [compound 318] | 2 (Class 2: The value of percent of control at 10^−7 M was from 40% to 60% or the value of IC′50 was from 50 nM to 200 nM.)
CN(C)c1nc(N[C@H]2CC[C@@H](NC(=O)Nc3cc(Cl)c(Cl)cc3Cl)CC2)nc2c1CCCC2 [compound 1846] | 2 (Class 2: The value of percent of control at 10^−7 M was from 40% to 60% or the value of IC′50 was from 50 nM to 200 nM.)
CN(C)c1nc(N[C@H]2CC[C@@H](CNCCc3ccc(Br)cc3)CC2)nc2c1CCCC2 [compound 1498] | 3 (Class 3 The value of percent of control at 10^−7 M was more than 60% or the value of IC50 was more than 200 nM.)
CCOc1cc(CN[C@H]2CC[C@@H](Nc3nc4c(c(N(C)C)n3)CCCC4)CC2)ccc1OC [compound 1338] | 3 (Class 3 The value of percent of control at 10^−7 M was more than 60% or the value of IC50 was more than 200 nM.)

Same assay, conditions: class by percent of control at 10^−7 M or IC50

Compound | class
Cc1cc(N(C)C)nc(N[C@H]2CC[C@@H](C(=O)N[C@@H](C)c3ccc(Cl)cc3)CC2)n1 [compound 2797, cis-N-[(1S)-1-(4-chlorophenyl)ethyl]-4-{[4-(dimethylamino)-6-methylpyrimidin-2-yl]amino}cyclohexanecarboxamide] | 1 (Class 1: The value of percent of control at 10^−7 M was less than 40% or the value of IC50 was less than 50 nM.)
COc1ccc(C(=O)N[C@H]2CC[C@@H](Nc3nc(C)cc(N(C)C)n3)CC2)cc1 [compound 2956] | 3 (Class 3 The value of percent of control at 10^−7 M was more than 60% or the value of IC50 was more than 200 nM.)
Cc1cnc(N[C@H]2CC[C@@H](CNC(=O)c3cccnc3Oc3ccc(Cl)c(F)c3)C2)nc1N(C)C [compound 3020] | 3 (Class 3 The value of percent of control at 10^−7 M was more than 60% or the value of IC50 was more than 200 nM.)
Cc1cnc(N[C@H]2CC[C@@H](NC(=O)c3cccnc3Oc3ccccc3F)CC2)nc1N(C)C [compound 2891, N-(cis-4-{[4-(dimethylamino)-5-methylpyrimidin-2-yl]amino}cyclohexyl)-2-(2-fluorophenoxy)nicotinamide] | 1 (Class 1: The value of percent of control at 10^−7 M was less than 40% or the value of IC50 was less than 50 nM.)
